Experiments:
[1] = tested on: NCI/ADR-RES; settings: NCI/ADR-RES (Breast Cancer)
[2] = tested on: LOX I MVI; settings: LOX I MVI (Melanoma)
[3] = tested on: T-47D; settings: T-47D (Breast Cancer)
[4] = tested on: M14; settings: M14 (Melanoma)
[5] = tested on: MDA-MB-231/ATCC; settings: MDA-MB-231/ATCC (Breast Cancer)
[6] = tested on: RPM1-8226; settings: RPM1-8226 (Leukemia)
[7] = tested on: SK-MEL-28; settings: SK-MEL-28 (Melanoma)
[8] = tested on: 786-0; settings: 786-0 (Renal Cancer)
[9] = tested on: HT29; settings: HT29 (Colon Cancer)
[10] = tested on: NCI-H460; settings: NCI-H460 (Non-Small Cell Lung Cancer)
[11] = tested on: EKVX; settings: EKVX (Non-Small Cell Lung Cancer)
[12] = tested on: SNB-75; settings: SNB-75 (CNS Cancer)
[13] = tested on: MDA-MB-435; settings: MDA-MB-435 (Breast Cancer)
[14] = tested on: A549/ATCC; settings: A549/ATCC (Non-Small Cell Lung Cancer)
[15] = tested on: COLO 205; settings: COLO 205 (Colon Cancer)
[16] = tested on: MCF7; settings: MCF7 (Breast Cancer)
[17] = tested on: HCC-2998; settings: HCC-2998 (Colon Cancer)
[18] = tested on: UO-31; settings: UO-31 (Renal Cancer)
[19] = tested on: HL-60(TB); settings: HL-60(TB) (Leukemia)
[20] = tested on: HOP-62; settings: HOP-62 (Non-Small Cell Lung Cancer)
[21] = tested on: OVCAR-8; settings: OVCAR-8 (Ovarian Cancer)
[22] = tested on: SF-539; settings: SF-539 (CNS Cancer)
[23] = tested on: CAKI-1; settings: CAKI-1 (Renal Cancer)
[24] = tested on: U251; settings: U251 (CNS Cancer)
[25] = tested on: SNB-19; settings: SNB-19 (CNS Cancer)
[26] = tested on: UACC-62; settings: UACC-62 (Melanoma)
[27] = tested on: SF-268; settings: SF-268 (CNS Cancer)
[28] = tested on: K-562; settings: K-562 (Leukemia)
[29] = tested on: TK-10; settings: TK-10 (Renal Cancer)
[30] = tested on: SN12C; settings: SN12C (Renal Cancer)
[31] = tested on: SW-620; settings: SW-620 (Colon Cancer)

COc1cc(Nc2ncc(F)c(Nc3ccc4c(n3)NC(=O)C(C)(C)O4)n2)cc(OC)c1OC.O=S(=O)(O)c1ccccc1 [Compound 1 (besylate salt), N4-(2,2-Dimethyl-3-oxo-4H-5-pyrid[1,4]oxazin-6-yl)-5-fluoro-N2-(3,4,5-trimethoxyphenyl)-2,4-pyrimidinediamine Benzenesulfonic Acid Salt]
7.26 µM: GI50 [15]
0.873 µM: GI50 [8]
2.72 µM: GI50 [16]
2.44E−6: TGI [23]
> 100 µM: GI50 [1] | CC50 ([1]; read-out: LC50) | CC50 ([2]; read-out: LC50) | CC50 ([3]; read-out: LC50) | GI50 [4] | CC50 ([4]; read-out: LC50) | CC50 ([5]; read-out: LC50) | GI50 [6] | CC50 ([6]; read-out: LC50) | GI50 [7] | CC50 ([7]; read-out: LC50) | CC50 ([8]; read-out: LC50) | CC50 ([9]; read-out: LC50) | CC50 ([10]; read-out: LC50) | CC50 ([11]; read-out: LC50) | CC50 ([12]; read-out: LC50) | CC50 ([13]; read-out: LC50) | CC50 ([14]; read-out: LC50) | CC50 ([15]; read-out: LC50) | CC50 ([16]; read-out: LC50) | GI50 [17] | CC50 ([17]; read-out: LC50) | CC50 ([18]; read-out: LC50) | GI50 [19] | CC50 ([19]; read-out: LC50) | CC50 ([20]; read-out: LC50) | GI50 [21] | CC50 ([21]; read-out: LC50) | CC50 ([22]; read-out: LC50) | CC50 ([23]; read-out: LC50) | CC50 ([24]; read-out: LC50) | GI50 [25] | CC50 ([25]; read-out: LC50) | CC50 ([26]; read-out: LC50) | CC50 ([27]; read-out: LC50) | GI50 [28] | CC50 ([28]; read-out: LC50) | CC50 ([29]; read-out: LC50) | CC50 ([30]; read-out: LC50) | CC50 ([31]; read-out: LC50)
0.537 µM: GI50 [20]
0.605 µM: GI50 [22]
1.66 µM: GI50 [11]
0.0515 µM: GI50 [23]
0.596 µM: GI50 [18]
0.698 µM: GI50 [30]
3.62 µM: GI50 [13]
>1.00E−4: TGI [1] | TGI [3] | TGI [4] | TGI [5] | TGI [6] | TGI [7] | TGI [8] | TGI [9] | TGI [10] | TGI [11] | TGI [12] | TGI [13] | TGI [14] | TGI [15] | TGI [16] | TGI [17] | TGI [18] | TGI [19] | TGI [20] | TGI [21] | TGI [24] | TGI [25] | TGI [26] | TGI [27] | TGI [28] | TGI [29] | TGI [30] | TGI [31]
0.871 µM: GI50 [12]
1.7 µM: GI50 [27]
1.13 µM: GI50 [2]
2.19 µM: GI50 [9]
1.13E−6: TGI [2]

Source: patent US20090012045A1, “Methods of Treating Cell Proliferative Disorders” (RIGEL PHARMACEUTICALS, INC., priority 2007, published 2009)
